From patent US5883121A, “Epoxysuccinamide derivative or salt thereof, and medicine comprising the same” (Taiho Pharmaceutical Co., Ltd., priority 1995, dated 1999)
Counter-ions that a name gives are not always drawn.

Key:
[1] = target: T1, cathepsin B (Rattus norvegicus, UniProt P00787); assay: Determination of inhibition rate against cathepsin B; assay type: biochemical; conditions: cathepsin B from rat liver; substrate Z-Arg-Arg-MCA; pH 5.5; 30° C; 10 minutes
T1 construct: extracted from a rat liver and completely purified; from tissue; host or cells: rat liver
T1 sequence (P00787 129-333 limits assumed): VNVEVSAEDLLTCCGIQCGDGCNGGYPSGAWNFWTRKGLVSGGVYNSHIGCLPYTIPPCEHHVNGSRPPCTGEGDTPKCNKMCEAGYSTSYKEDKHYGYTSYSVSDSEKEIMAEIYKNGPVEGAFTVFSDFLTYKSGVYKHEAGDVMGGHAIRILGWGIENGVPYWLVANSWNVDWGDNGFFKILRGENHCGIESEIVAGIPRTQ
T1 sequence (P00787 80-126 limits assumed): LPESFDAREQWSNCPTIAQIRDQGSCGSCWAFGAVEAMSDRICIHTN
Experimental: (§1) Determination of inhibition rate against cathepsin L, B and H […]
(§2) Each cathepsin was diluted with a diluent (0.1% Brij 35) to adjust its concentration to 0.3 U (0.1 U: a concentration at which 1.0 nmol of MCA is released per minute at 37° C.). To 500 μl of this solution, were added 250 μl of an activator/buffer (340 mM sodium acetate, 60 mM acetic acid, 4 mM disodium EDTA; pH 5.5). After the mixture was incubated for 1 minute at 30° C., the sample solution of the predetermined concentration and […] of a substrate solution were added to conduct a reaction for 10 minutes.

[2] = target: T2, cathepsin L (Rattus norvegicus, UniProt P07154); assay: Determination of inhibition rate against cathepsin L; assay type: biochemical; conditions: for B/L: IC50 against cathepsin B divided by IC50 against cathepsin L; for IC50: cathepsin L from rat liver, substrate Z-Phe-Arg-MCA, pH 5.5, 30° C, 10 minutes
T2 construct: extracted from a rat liver and completely purified; from tissue; host or cells: rat liver
T2 sequence (P07154 114-288 limits assumed): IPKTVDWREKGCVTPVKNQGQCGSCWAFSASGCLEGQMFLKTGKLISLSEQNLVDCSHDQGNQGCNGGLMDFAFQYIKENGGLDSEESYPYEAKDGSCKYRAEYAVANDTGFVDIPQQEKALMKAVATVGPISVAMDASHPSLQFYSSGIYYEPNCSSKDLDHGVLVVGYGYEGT
T2 sequence (P07154 291-334 limits assumed): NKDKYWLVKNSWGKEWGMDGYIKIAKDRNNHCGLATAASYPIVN
Experimental: as §1, §2

Question: How did the IC50 [1] turn out when NCCCC[C@H](NC(=O)[C@H]1O[C@@H]1C(=O)N[C@@H](Cc1ccccc1)C(=O)NCCc1ccccc1)C(=O)Nc1ccc(Cl)c2ccccc12 [Example 49, Nα-{L-3-trans-[(S)-1-(2-phenylethylcarbamoyl)-2-phenylethylcarbamoyl]oxirane-2-carbonyl}-L-lysine-1-(4-chloronaphthyl)amide hydrochloride] was run?
Answer: 2000 nM

Question: And the B/L [2]?
Answer: 1176

Question: What about the IC50 [2] of the same compound?
Answer: 1.7 nM

Question: CCNC(=O)[C@H](Cc1ccccc1)NC(=O)[C@H]1O[C@@H]1C(=O)N[C@@H](CCCCN)C(=O)Nc1ccccc1 [Example 67, Nα-{L-3-trans-[(S)-1-ethylcarbamoyl-2-phenylethylcarbamoyl]oxirane-2-carbonyl)-L-lysine anilide hydrochloride] was tested. Which IC50 [1] did it give?
Answer: 68000 nM

Question: What about the B/L [2] of the same compound?
Answer: 1570

Question: What about the IC50 [2] of the same compound?
Answer: 36 nM

Question: NCCCC[C@H](NC(=O)[C@H]1O[C@@H]1C(=O)NC1Cc2ccccc2C1)C(=O)Nc1cccc2ccccc12 [Example 12, Nα-[L-3-trans-(2-indanylcarbamoyl)oxirane-2-carbonyl]-L-lysine-1-naphthylamide hydrochloride] was tested. Which IC50 [1] did it give?
Answer: > 10000 nM

Question: And the B/L [2]?
Answer: > 250

Question: And the IC50 [2]?
Answer: 40 nM

Question: Which results are given for CC(C)NC(=O)[C@H](Cc1ccccc1)NC(=O)[C@H]1O[C@@H]1C(=O)N[C@@H](CCCCN)C(=O)Nc1ccccc1 [Example 61, Nα-{L-3-trans-[(S)-1-isopropylcarbamoyl-2-phenylethylcarbamoyl]oxirane-2-carbonyl}-L-lysine anilide hydrochloride]?
Answer: IC50 [1]: > 10000 nM; B/L [2]: > 3571; IC50 [2]: 2.8 nM

Question: Which results are given for NCCCC[C@H](NC(=O)[C@H]1O[C@@H]1C(=O)N[C@@H](Cc1ccccc1)C(N)=O)C(=O)Nc1ccccc1 [Example 55, Nα-{L-3-trans-[(S)-1-carbamoyl-2-phenylethylcarbamoyl]oxirane-2-carbonyl}-Nε-L-lysine anilide hydrochloride]?
Answer: IC50 [1]: 44000 nM; B/L [2]: 2444; IC50 [2]: 18 nM

Question: What does the source list for NCCCC[C@H](NC(=O)[C@H]1O[C@@H]1C(=O)N[C@@H](Cc1ccccc1)C(=O)NC1CCCCC1)C(=O)Nc1ccccc1 [Example 69, Nα-{L-3-trans-[(S)-1-cyclohexylcarbamoyl-2-phenylethylcarbamoyl]oxirane-2-carbonyl}-L-lysine anilide hydrochloride]?
Answer: IC50 [1]: > 10000 nM; B/L [2]: > 1177; IC50 [2]: 8.5 nM

Question: With NCCCC[C@H](NC(=O)[C@H]1O[C@@H]1C(=O)NCCc1ccccc1)C(=O)NC1c2ccccc2-c2ccccc21 [Example 6, Nα-[L-3-trans-(2-phenylethylcarbamoyl)oxirane-2-carbonyl]-L-lysine-9-fluorenylamide hydrochloride] as the compound, how does the IC50 [2] read?
Answer: 960 nM

Question: Which IC50 [1] does the source give for CCCNC(=O)[C@H](Cc1ccccc1)NC(=O)[C@H]1O[C@@H]1C(=O)N[C@@H](CCCCN)C(=O)Nc1ccccc1 [Example 59, Nα-{L-3-trans-[(S)-1-propylcarbamoyl-2-phenylethylcarbamoyl]oxirane-2-carbonyl}-L-lysine anilide hydrochloride] here?
Answer: > 10000 nM

Question: What about the B/L [2] of the same compound?
Answer: > 3703

Question: What about the IC50 [2] of the same compound?
Answer: 2.7 nM

Question: For NCCCC[C@H](NC(=O)[C@H]1O[C@@H]1C(=O)N[C@@H](Cc1ccccc1)C(N)=O)C(=O)N(Cc1ccccc1)Cc1ccccc1 [Example 16, Nα-{L-3-trans-[(S)-1-carbamoyl-2-phenylethylcarbamoyl]oxirane-2-carbonyl}-L-lysine dibenzylamide hydrochloride], which IC50 [2] is on record?
Answer: 220 nM

Question: For CC(=O)NCCCC[C@H](NC(=O)[C@H]1O[C@@H]1C(=O)N[C@@H](Cc1ccccc1)C(N)=O)C(=O)Nc1cccc2ccccc12 [Example 31, Nα-{L-3-trans-[(S)-1-carbamoyl-2-phenylethylcarbamoyl]oxirane-2-carbonyl)-Nε-acetyl-L-lysine-1-naphthylamide], which IC50 [2] is on record?
Answer: 7 nM

Question: How did the IC50 [2] turn out when NCCCC[C@H](NC(=O)[C@H]1O[C@@H]1C(=O)NC1Cc2ccccc2C1)C(=O)NC1c2ccccc2-c2ccccc21 [Example 10, Nα-[L-3-trans-(2-indanylcarbamoyl)oxirane-2-carbonyl]-L-lysine-9-fluorenylamide hydrochloride] was run?
Answer: 870 nM
